According to patent publication US4866055A, “Cephalosporin derivatives and their crystalline derivatives” (Mochida Pharmaceutical Co., Ltd., priority 1986, dated 1989):
In brackets after ≈: the same amount, converted by molar mass. Read-outs that look alike come from different tables or passages of the source.

Assays:
[1] = Stability (storage); type: physicochemical
[2] = Solubility; type: physicochemical; conditions: trisodium salt, amorphous solid; for parenteral use
[3] = tested on: Escherichia coli 67; assay: Protection against systemic infection in mice; type: in vivo, ICR mice; conditions: iv, 168 h, i.p. infection, i.v. compound 1 hour after infection, survival at 1 week
Experimental: (§1) Protection ability against systemic infection was determined as follows. An aqueous suspension of test bacteria was intraperitoneally injected into 10 four week old ICR mice. One hour after the infection, test compounds were intravenously administered. The number of surviving mice was counted 1 week after injection to determine the dose at which 50% of the test animals were alive (ED50 : mg/kg).

[4] = tested on: Staphylococcus aureus 242; assay: Protection against systemic infection in mice; type: in vivo, ICR mice; conditions: 168 h
Experimental: as §1

[5] = tested on: Serratia marcescens 274; assay: Protection against systemic infection in mice; type: in vivo, ICR mice; conditions: 168 h
Experimental: as §1

[6] = tested on: Klebsiella pneumoniae IFO 3317; assay: Protection against systemic infection in mice; type: in vivo, ICR mice; conditions: for ED50: IFO3317, iv, 168 h
Experimental: as §1

[7] = tested on: Proteus mirabilis IFO 3849; assay: Protection against systemic infection in mice; type: in vivo, ICR mice; conditions: IFO3849, iv, 168 h
Experimental: as §1

[8] = tested on: Pseudomonas aeruginosa 13; assay: Protection against systemic infection in mice; type: in vivo, ICR mice; conditions: for ED50: 168 h
Experimental: as §1

[9] = tested on: Serratia marcescens IFO 3759; assay: Antibacterial activity in vitro, agar plate dilution method (MIC); type: cell-based
Experimental: (§2) Antibacterial activity in vitro was determined in accordance with the agar plate dilution method.
(§3) A platinum loop each of test bacteria (10^6 cells/ml), cultured in Mueller Hinton broth, was inoculated on Mueller Hinton agar plates which contained test compounds at various concentrations. After cultivating at 37° C. for 20 hours, the minimum inhibitory concentration (MIC μg/ml) was determined.

[10] = tested on: Klebsiella pneumoniae IFO 3317; assay: as above; type: cell-based
Experimental: as §2, §3

[11] = tested on: Escherichia coli NIHJ JC 2; assay: as above; type: cell-based; conditions: NIHJJC2, 37° C., 20 hours, Mueller Hinton agar
Experimental: as §2, §3

[12] = tested on: Proteus morganii IFO 3848; assay: as above; type: cell-based; conditions: Morganella morganii
Experimental: as §2, §3

[13] = tested on: Pseudomonas aeruginosa 13; assay: as above; type: cell-based
Experimental: as §2, §3

[14] = Acute toxicity, LD50 by the Probit method; conditions: in vivo, iv
Experimental: Next, LD50 of representative examples of the compounds of the present invention is shown in Table 3 herein LD50 was determined in accordance with the Probit method.

[15] = tested on: bacterial strains except Pseudomonas aeruginosa; assay: Antibacterial activity in vitro, agar plate dilution method, all strains except Pseudomonas aeruginosa; type: cell-based; conditions: Tables 1-a through 1-b
Experimental: as §2, §3

[16] = tested on: Staphylococcus aureus Smith; assay: Antibacterial activity in vitro, agar plate dilution method (MIC); type: cell-based; conditions: 37° C., 20 hours, Mueller Hinton agar
Experimental: as §2, §3

[17] = tested on: experimental infection; assay: Protection of animals from experimental infection (overall); type: in vivo, ICR mice; conditions: Tables 2-a through 2-b, vs reference compound
Experimental: as §1

[18] = iv, Staphylococcus aureus 242, i.p. infection, i.v. compound 1 hour after infection, survival at 1 week, read-out: ED50
[19] = iv, Serratia marcescens 274, i.p. infection, i.v. compound 1 hour after infection, survival at 1 week, read-out: ED50
[20] = Klebsiella pneumoniae IFO 3317, i.p. infection, i.v. compound 1 hour after infection, survival at 1 week, read-out: ED50
[21] = Proteus mirabilis IFO 3849, i.p. infection, i.v. compound 1 hour after infection, survival at 1 week, read-out: ED50
[22] = iv, Pseudomonas aeruginosa 13, i.p. infection, i.v. compound 1 hour after infection, survival at 1 week, read-out: ED50
[23] = IFO3759, Serratia marcescens IFO 3759, 37° C., 20 hours, Mueller Hinton agar, read-out: MIC
[24] = IFO3317, Klebsiella pneumoniae IFO 3317, 37° C., 20 hours, Mueller Hinton agar, read-out: MIC
[25] = IFO3848, Proteus morganii IFO 3848, 37° C., 20 hours, Mueller Hinton agar, read-out: MIC
[26] = Pseudomonas aeruginosa 13, 37° C., 20 hours, Mueller Hinton agar, read-out: MIC

Structure (SMILES)	ED50 [3] [mg/kg]	MIC [11] [µg/mL]	LD50 [14] [mg/kg]	ED50 [4, 18] [mg/kg]	ED50 [5, 19] [mg/kg]	ED50 [6, 20] [mg/kg]	ED50 [7, 21] [mg/kg]	ED50 [8, 22] [mg/kg]	MIC [9, 23] [µg/mL]	MIC [16] [µg/mL]	MIC [10, 24] [µg/mL]	MIC [12, 25] [µg/mL]	MIC [13, 26] [µg/mL]	other results
Cc1cc(SCC2=C(C(=O)[O-])N3C(=O)[C@@H](NC(=O)/C(=N\OCc4cc(O)c(O)cc4C(=O)[O-])c4csc(N)n4)[C@H]3SC2)n2nc(C(=O)[O-])nc2n1.[Na+].[Na+].[Na+]														stability ([1]; as bulk materials or as parenteral preparations): not necessarily sufficient; solubility [2]: excellent solubility
CC(C)(O/N=C(\C(=O)N[C@@H]1C(=O)N2C(C(=O)[O-])=C(C[n+]3ccccc3)CS[C@H]12)c1csc(N)n1)C(=O)O [CAZ, Ceftazidime]	6.48	0.2 (≈ 0.366 µM)	> 4000											ED50 ([4]; Staphylococcus aureus, 242, iv): > 100 mg/kg; ED50 ([5]; Serratia marcescens, 274, iv): 3.62 mg/kg; ED50 ([6]; Klebsiella pneumoniae): 10.6 mg/kg; ED50 ([7]; Proteus mirabilis): 4.36 mg/kg; ED50 ([8]; Pseudomonas aeruginosa, 13, iv): 145 mg/kg; MIC ([9]; Serratia marcescens, IFO3759, 20 h): ≤ 0.05 µg/mL; MIC ([10]; Klebsiella pneumoniae, IFO3317, 20 h): ≤ 0.05 µg/mL; MIC ([12]; IFO3848, 20 h): 0.2 µg/mL (≈ 0.366 µM); MIC ([13]; Pseudomonas aeruginosa, 13, 20 h): 1.56 µg/mL (≈ 2.85 µM)
Cn1nnnc1SCC1=C(C(=O)O)N2C(=O)[C@@H](NC(=O)[C@H](O)c3ccccc3)[C@H]2SC1 [CMD, Cefamandole]				8.94										
Cc1cc(SCC2=C(C(=O)O)N3C(=O)[C@@H](NC(=O)/C(=N\OCc4cc(O)c(O)cc4C(=O)O)c4csc(N)n4)[C@H]3SC2)n2nc(C(=O)O)nc2n1 [Compound 1, (6R,7R)-7-[2-(2-amino-4-thiazolyl)-2-[Z-[(2-carboxy-4,5-dihydroxyphenyl)methyl]oxyimino]acetamido]-3-[(2-carboxy-5-methyl-s-triazolo[1,5-a]pyrimidin-7-yl)thiomethyl]-8-oxo-5-thia-1-azabicyclo[4.2.0]-oct-2-ene-2-carboxylic acid]	1.05	0.39 (≈ 0.515 µM)	> 4000	7.68	0.77	0.27	5.07	61.8	0.1 (≈ 0.132 µM)	1.56 (≈ 2.06 µM)	≤ 0.05	0.39 (≈ 0.515 µM)	0.1 (≈ 0.132 µM)	times as potent as the reference compound ([6]; infection with Klebsiella pneumoniae, vs reference compound): more than 10 times; times as potent as the reference compound ([8]; infection with Pseudomonas aeruginosa, vs reference compound): more than 10 times; potency relative to the reference compound in vitro [15]: about equipotent to the reference compound; times as potent as Ceftazidime ([13]; MIC, Pseudomonas aeruginosa, vs Ceftazidime): more than 10 times; times as potent as the reference compound ([13]; MIC, Pseudomonas aeruginosa, vs reference compound): more than 10 times; potency in protecting the animals from experimental infection relative to the reference compound [17]: evidently more potent than the reference compound
CC(=O)Oc1cc(C(=O)O)c(CO/N=C(\C(=O)N[C@@H]2C(=O)N3C(C(=O)O)=C(CSc4cc(C)nc5nc(C(=O)O)nn45)CS[C@H]23)c2csc(N)n2)cc1O [Reference compound, (6R,7R)-7-[2-(2-amino-4-thiazolyl)-2-[Z-[(4-acetoxy-2-carboxy-5-hydroxyphenyl)methy]oxyimino]acetamido]-3-[(2-caboxy-5-methyl-s-triazolo[1,5-a]pyrimidin-7-yl)thiomethyl]-8-oxo-5-thia-1-azabicyclo[4.2.0]oct-2-ene-2-carboxylicacid]	7.66	0.39 (≈ 0.488 µM)		12.4	2.56	3.58	20.1	> 500	≤ 0.05	1.56 (≈ 1.95 µM)	≤ 0.05	0.2 (≈ 0.25 µM)	1.56 (≈ 1.95 µM)	
Cc1cc(SCC2=C(C(=O)O)N3C(=O)[C@@H](NC(=O)/C(=N\OCc4cc(O)c(O)cc4C(=O)O)c4csc(N)n4)[C@H]3SC2)n2nc(C(=O)O)nc2n1 [crystalline hydrated compound, crystalline hydrated (6R,7R)-7-[2-(2-amino-4-thiazol-yl)-2-[Z-[(2-carboxy-4,5-dihydroxyphenyl)methyl]oxyimino]acetamido]-3-[(2-carboxy-5-methyl-s-triazolo[1,5-a]pyrimidin-7-yl)thiomethyl]-8-oxo-5-thia-1-azabicyclo[4.2.0]oct-2-ene-2-carboxylic acid]														stability on storage ([1]; crystalline hydrate): increased stability on storage
